Key:
[1] = target: T1, Recombinant (1-346) HPK1 (h) (Homo sapiens, UniProt Q92918); assay: HPK1 Human STE Kinase Enzymatic Radiometric Assay; assay type: biochemical; settings: read-out: HPK1 IC50 nM Range*
T1 construct: Recombinant (1-346) HPK1 (h) is incubated with 8 mM MOPS pH 7.0
T1 sequence (Q92918 1-346): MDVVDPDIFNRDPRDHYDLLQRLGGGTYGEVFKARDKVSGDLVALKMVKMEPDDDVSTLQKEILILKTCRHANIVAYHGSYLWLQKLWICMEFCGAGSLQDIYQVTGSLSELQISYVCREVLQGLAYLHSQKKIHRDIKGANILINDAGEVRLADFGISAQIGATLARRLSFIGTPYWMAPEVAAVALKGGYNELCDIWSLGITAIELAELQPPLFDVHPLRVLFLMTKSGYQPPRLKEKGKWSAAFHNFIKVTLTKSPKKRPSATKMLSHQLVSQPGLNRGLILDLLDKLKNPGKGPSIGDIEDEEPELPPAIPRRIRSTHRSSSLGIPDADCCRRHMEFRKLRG
Experimental: A stock solution of 10 mM of test compound is prepared in DMSO. The compound plate was prepared by 3-fold and 9-point serial dilutions. […] The reaction is initiated by The addition of the Mg/ATP mix. After incubation for 40 minutes at RT, the reaction is stopped by the addition of phosphoric acid to a concentration of 0.5%.

Lck (h) = Lck (h) (Homo sapiens, UniProt P06239); assay: Lck Human  Kinase Enzymatic Radiometric Assay; assay type: biochemical; settings: read-out: Lck IC50 nM Range*
Chain of Lck (h) (P06239 whole entry): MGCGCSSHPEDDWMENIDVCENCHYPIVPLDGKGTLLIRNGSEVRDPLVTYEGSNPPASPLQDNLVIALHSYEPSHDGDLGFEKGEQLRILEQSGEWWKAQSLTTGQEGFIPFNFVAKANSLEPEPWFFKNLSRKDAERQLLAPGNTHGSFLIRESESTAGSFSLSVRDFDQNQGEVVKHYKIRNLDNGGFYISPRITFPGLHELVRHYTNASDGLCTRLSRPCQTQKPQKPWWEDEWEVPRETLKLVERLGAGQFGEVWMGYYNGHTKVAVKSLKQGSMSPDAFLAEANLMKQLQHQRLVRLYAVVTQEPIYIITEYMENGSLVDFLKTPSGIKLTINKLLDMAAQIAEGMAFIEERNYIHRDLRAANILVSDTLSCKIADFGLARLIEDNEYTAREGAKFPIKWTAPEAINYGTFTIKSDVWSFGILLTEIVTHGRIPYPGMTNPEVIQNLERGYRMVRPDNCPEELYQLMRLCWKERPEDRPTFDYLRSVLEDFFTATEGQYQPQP
In short: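 Substrate 33P-incorporation measured by scintillation counting after spotting on P30 filtermat and phosphoric acid washes. Human Lck reacted 40 min at RT in 50 mM Tris pH 7.5 with 10 mM MgAcetate, [gamma-33P]-ATP, 250 uM Cdc2 peptide, 0.1 mM EGTA and 0.1 mM Na3VO4.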

SMILES | IC50 [1] [nM] | IC50 (Lck (h)) [nM]
Nc1nc(F)c(-c2ccc(N3CCOCC3)cc2)cc1-c1cc(F)c2c(=O)[nH]ccc2c1 [I-396, 6-(2-amino-6-fluoro-5-(4-morpholinophenyl)pyridin-3-yl)-8-fluoroisoquinolin-1(2H)-one] | 0.1 to 10 | > 1000
CC(C)N1CCN(c2ccc(-c3cc(-c4cc5c(cn4)C(=O)NCC5)c(N)nc3F)cc2)CC1 [I-398, 6-(2-amino-6-fluoro-5-(4-(4-isopropylpiperazin-1-yl)phenyl)pyridin-3-yl)-3,4-dihydro-2,7-naphthyridin-1(2H)-one] | 0.1 to 10 | 101 to 1000
Nc1nc(F)c(-c2ccc(N3CCN(CC4CC4)CC3)cc2)cc1-c1cc2c(cn1)C(=O)NCC2 [I-400, 6-(2-amino-5-(4-(4-(cyclopropylmethyl)piper-azin-1-yl)phenyl)-6-fluoropyridin-3-yl)-3,4-dihydro-2,7-naphthyridin-1(2H)-one] | 0.1 to 10 | 101 to 1000
CC(C)N1CCN(c2ccc(-c3cc(-c4cc5cc[nH]c(=O)c5cn4)c(N)nc3F)cc2)CC1 [I-401, 6-(2-amino-6-fluoro-5-(4-(4-isopropylpiperazin-1-yl)phenyl)pyridin-3-yl)-2,7-naphthyridin-1(2H)-one] | 0.1 to 10 | > 1000
CC(C)N1CCN(c2ccc(-c3cc(-c4cnc5c(=O)[nH]ccc5c4)c(N)nc3F)cc2)CC1 [I-402, 3-(2-amino-6-fluoro-5-(4-(4-isopropylpiperazin-1-yl)phenyl)pyridin-3-yl)-1,7-naphthyridin-8(7H)-one] | 0.1 to 10 | > 1000
CC(C)N1CCN(c2ccc(-c3cc(-c4cc(F)c5c(=O)[nH]cnc5c4)c(N)nc3F)cc2)CC1 [I-405, 7-(2-amino-6-fluoro-5-(4-(4-isopropylpiperazin-1-y)phenyl)pyridin-3-yl)-5-fluoroquinazolin-4(3H)-one] | 0.1 to 10 | > 1000
CC(C)N1CCN(c2ccc(-c3cc(-c4cc5nc[nH]c(=O)c5cc4F)c(N)nc3F)cc2)CC1 [I-406, 7-(2-amino-6-fluoro-5-(4-(4-isopropylpiperazin-1-yl)phenyl)pyridin-3-yl)-6-fluoroquinazolin-4(3H)-one] | 0.1 to 10 | > 1000
Nc1nc(F)c(-c2ccc(N3CCN(CC4CC4)CC3)cc2)cc1-c1cc(F)c2c(=O)[nH]cnc2c1 [I-407, 7-(2-amino-5-(4-(4-(cyclopropylmethyl)piper-azin-1-yl)phenyl)-6-fluoropyridin-3-yl)-5-fluoroquinazolin-4(3H)-one] | 0.1 to 10 | > 1000
Nc1nc(F)c(-c2ccc(N3CCN(CC4CC4)CC3)cc2)cc1-c1cc2nc[nH]c(=O)c2cc1F [I-408, 7-(2-amino-5-(4-(4-(cyclopropylmethyl)piper-azin-1-yl)phenyl)-6-fluoropyridin-3-yl)-6-fluoroquinazolin-4(3H)-one] | 0.1 to 10 | > 1000
Cc1nc2cc(-c3cc(-c4ccc(N5CCN(C(C)C)CC5)cc4)c(F)nc3N)ccc2c(=O)[nH]1 [I-409, 7-(2-amino-6-fluoro-5-(4-(4-isopropylpiperazin-1-yl)phenyl)pyridin-3-yl)-2-methylquinazolin-4(3H)-one] | 0.1 to 10 | > 1000
CNCc1nc2cc(-c3cc(-c4ccc(N5CCN(C(C)C)CC5)cc4)c(F)nc3N)ccc2c(=O)[nH]1 [I-410, 7-(2-amino-6-fluoro-5-(4-(4-isopropylpiperazin-1-yl)phenyl)pyridin-3-yl)-2-((methylamino)methyl)quin-azolin-4(3H)-one] | 11 to 100 | > 1000
Cc1nc2cc(-c3cc(-c4ccc(N5CCN(CC6CC6)CC5)cc4)c(F)nc3N)ccc2c(=O)[nH]1 [I-411, 7-(2-amino-5-(4-(4-(cyclopropylmethyl)piper-azin-1-yl)phenyl)-6-fluoropyridin-3-yl)-2-methylquinazolin-4(3H)-one] | 11 to 100 | > 1000
Cc1nc2cc(-c3cc(-c4ccc(N5CCN(C(C)C)CC5)cc4)c(F)nc3N)cc(F)c2c(=O)[nH]1 [I-414, 7-(2-amino-6-fluoro-5-(4-(4-isopropylpiperazin-1-yl)phenyl)pyridin-3-yl)-5-fluoro-2-methylquinazolin-4(3H)-one] | 0.1 to 10 | > 1000
Cc1nc2cc(-c3cc(-c4ccc(N5CCN(CC6CC6)CC5)cc4)c(F)nc3N)cc(F)c2c(=O)[nH]1 [I-416, 7-(2-amino-5-(4-(4-(cyclopropylmethyl)piper-azin-1-yl)phenyl)-6-fluoropyridin-3-yl)-5-fluoro-2-methylquinazolin-4(3H)-one] | 0.1 to 10 | > 1000
Cc1nc2cc(-c3cc(-c4ccc(N5CCN(CCC6CC6)CC5)cc4)c(F)nc3N)cc(F)c2c(=O)[nH]1 [I-417, 7-(2-amino-5-(4-(4-(2-cyclopropylethyl)piperazin-1-yl)phenyl)-6-fluoropyridin-3-yl)-5-fluoro-2-methylquinazolin-4(3H)-one] | 0.1 to 10 | > 1000
Cc1c[nH]c(=O)c2ccc(-c3cc(-c4ccc(C5CCOCC5)c(CN(C)C)c4)c(F)nc3N)cc12 [I-426, 6-(2-amino-5-(3-((dimethylamino)methyl)-4-(tetrahydro-2H-pyran-4-yl)phenyl)-6-fluoropyridin-3-yl)-4-methylisoquinolin-1(2H)-one] | 0.1 to 10 | > 1000
CN(C)Cc1nc(-c2cc(-c3cc4c(cc3F)C(=O)NCC4)c(N)nc2F)ccc1N1CCOCC1 [I-427, 6-(6′-amino-6-((dimethylamino)methyl)-2′-fluoro-5-morpholino-[2,3-bipyridin]-5′-yl)-7-fluoro-3,4-dihydroisaoquinolin-1(2H)-one] | 0.1 to 10 | > 1000
CN(C)Cc1cc(-c2cc(-c3cc4c(cc3F)C(=O)NCC4)c(N)nc2F)ccc1C1CCOCC1 [I-429, 6-(2-amino-5-(3-((dimethylamino)methyl)-4-(tetrahydro-2H-pyran-4-yl)phenyl)-6-fluoropyridin-3-yl)-7-fluoro-3,4-dihydroisoquinolin-1(2H)-one] | 0.1 to 10 | > 1000
Cc1cc(-c2cc(-c3ccc4c(c3)CCNC4=O)c(N)nc2F)cc2c1CCNC2 [I-431, 6-(2-amino-6-fluoro-5-(5-methyl-1,2,3,4-tetrahydroisoquinolin-7-yl)pyridin-3-yl)-3,4-dihydroisoquinolin-1(2H)-one] | 0.1 to 10 | > 1000
CN(C)Cc1cc(-c2cc(-c3ccc4c(c3)CCNC4=O)c(N)nc2F)ccc1N1CCOCC1 [I-432, 6-(2-amino-5-(3-((dimethylamino)methyl)-4-morpholinophenyl)-6-fluoropyridin-3-yl)-3,4-dihydroisoquinolin-1(2H)-one] | 0.1 to 10 | > 1000
Cc1cc(-c2cc(-c3ccc4c(c3)CCNC4=O)c(N)nc2F)cc2c1CCN(C)C2 [I-434, 6-(2-amino-5-(2,5-dimethyl-1,2,3,4-tetrahydroisoquinolin-7-yl)-6-fluoropyridin-3-yl)-3,4-dihydroisoquinolin-1(2H)-one] | 0.1 to 10 | > 1000
CC(C)N1CCN(c2ccc(-c3cc(-c4ccc5c(=O)[nH]c(C(F)(F)F)nc5c4)c(N)nc3F)cc2)CC1 [I-435, 7-(2-amino-6-fluoro-5-(4-(4-isopropylpiperazin-1-yl)phenyl)pyridin-3-yl)-2-(trifluoromethyl)quinazolin-4(3H)-one] | 101 to 1000 | > 1000
CN(C)Cc1cc(-c2cc(-c3cc(F)c4c(c3)CCNC4=O)c(N)nc2F)ccc1C1CCOCC1 [I-436, 6-(2-amino-5-(3-((dimethylamino)methyl)-4-(tetrahydro-2H-pyran-4-yl)phenyl)-6-fluoropyridin-3-yl)-8-fluoro-3,4-dihydroisoquinolin-1(2H)-one] | 0.1 to 10 | > 1000
Cc1nc2cc(-c3cc(-c4ccc(C5CCOCC5)c(CN(C)C)c4)c(F)nc3N)ccc2c(=O)[nH]1 [I-437, 7-(2-amino-5-(3-((dimethylamino)methyl)-4-(tetrahydro-2H-pyran-4-yl)phenyl)-6-fluoropyridin-3-yl)-2-methylquinazolin-4(3H)-one] | 11 to 100 | > 1000
Cc1nc2cc(-c3cc(-c4ccc(N5CCN(C(C)C)CC5)cc4)c(F)nc3N)c(F)cc2c(=O)[nH]1 [I-439, 7-(2-amino-6-fluoro-5-(4-(4-isopropylpiperazin-1-yl)phenyl)pyridin-3-yl)-6-fluoro-2-methylquinazolin-4(3H)-one] | 11 to 100 | > 1000
Nc1nc(F)c(-c2ccc(N3CCN(CCCC(F)F)CC3)cc2)cc1-c1cc(F)c2c(c1)CCNC2=O [I-440, 6-(2-amino-5-(4-(4-(4,4-difluorobutyl)piperazin-1-yl)phenyl)-6-fluoropyridin-3-yl)-8-fluoro-3,4-dihydroisoquinolin-1(2H)-one] | 0.1 to 10 | > 1000
CN(C)Cc1cc(-c2cc(-c3ccc4c(c3)CCNC4=O)c(N)nc2F)ccc1N1CCN(CCCC(F)F)CC1 [I-445, 6-(2-amino-5-(4-(4-(4,4-difluorobutyl)piperazin-1-yl)-3-((dimethylamino)methyl)phenyl)-6-fluoropyridin-3-yl)-3,4-dihydroisoquinolin-1(2H)-one] | 0.1 to 10 | > 1000
